# Results taken from PMC11427369 (Frontiers in Pharmacology, 2024).
# Key:
# [1] = molecular target: C2IIa (Clostridium botulinum, UniProt O86171); format: biochemical
# [2] = molecular target: T1, PA63 (Bacillus anthracis, UniProt P13423); format: biochemical
# T1 construct: gene pagA
# T1 sequence (P13423 197-764 limits assumed): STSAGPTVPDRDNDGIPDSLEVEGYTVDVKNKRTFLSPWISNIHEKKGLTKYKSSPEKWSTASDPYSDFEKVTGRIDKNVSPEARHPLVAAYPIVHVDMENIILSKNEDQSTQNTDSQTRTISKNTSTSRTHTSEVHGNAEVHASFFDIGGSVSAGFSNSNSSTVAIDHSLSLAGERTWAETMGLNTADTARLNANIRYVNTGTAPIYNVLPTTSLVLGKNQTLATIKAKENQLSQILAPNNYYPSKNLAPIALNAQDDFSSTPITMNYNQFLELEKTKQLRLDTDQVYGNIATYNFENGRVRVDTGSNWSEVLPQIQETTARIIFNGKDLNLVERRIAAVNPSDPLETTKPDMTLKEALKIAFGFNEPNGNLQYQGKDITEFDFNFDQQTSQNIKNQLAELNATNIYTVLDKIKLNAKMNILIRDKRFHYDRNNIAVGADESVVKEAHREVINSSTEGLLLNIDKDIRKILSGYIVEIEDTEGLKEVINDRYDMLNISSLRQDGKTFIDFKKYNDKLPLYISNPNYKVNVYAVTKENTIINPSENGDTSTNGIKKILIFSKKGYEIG
# C2IIa, sequence (O86171 182-721 limits assumed): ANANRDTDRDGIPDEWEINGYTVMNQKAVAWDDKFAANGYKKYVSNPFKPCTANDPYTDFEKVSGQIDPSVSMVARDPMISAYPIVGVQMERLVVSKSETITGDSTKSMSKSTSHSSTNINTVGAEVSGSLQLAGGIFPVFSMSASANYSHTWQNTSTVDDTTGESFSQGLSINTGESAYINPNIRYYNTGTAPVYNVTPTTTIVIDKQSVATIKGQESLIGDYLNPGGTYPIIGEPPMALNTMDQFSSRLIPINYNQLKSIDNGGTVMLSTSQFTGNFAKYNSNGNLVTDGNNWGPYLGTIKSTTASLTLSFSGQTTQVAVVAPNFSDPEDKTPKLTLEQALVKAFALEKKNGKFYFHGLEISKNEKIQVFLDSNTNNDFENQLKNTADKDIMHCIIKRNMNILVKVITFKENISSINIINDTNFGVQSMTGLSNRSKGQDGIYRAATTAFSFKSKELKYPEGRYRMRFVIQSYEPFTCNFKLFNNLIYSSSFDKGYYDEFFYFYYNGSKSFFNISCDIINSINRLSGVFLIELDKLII
smiles,measurement,setting,value
CCN(CC)C(=S)SSC(=S)N(CC)CC [disulfiram],"pore conductance block, planar lipid bilayer",[1],addition of DSF led to an immediate block of any current flowing
same,"pore conductance block, planar lipid bilayer",[2],"addition of DSF immediately blocked any current flow, leading to zero level of conductance"
